Measurements from patent US20250382305A1 (PTC THERAPEUTICS, INC., priority 2022, published 2025).

Columns and labels:
[1] = system: Total ATXN3 (tATXN3) protein; assay: Endogenous Total ATXN3 (tATXN3) Protein Assay (MSD immunoassay of cell lysates); format: cell-based; settings: average IC50, total ATXN3 protein in cell lysate after 48 h with compound (Table 1)
Summary of the method: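 Cells in DMEM/10% FBS were plated at 10,000 per well onto 7-point, 3.16-fold compound dilutions in duplicate for 48 h at 37° C, then lysed. Total ATXN3 in lysates was measured by MSD sandwich immunoassay: mouse anti-ATXN3 capture, rabbit anti-ATXN3 detection, SULFO-TAG anti-rabbit. Average IC50 was reported in star bins.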

ATXN3 pre-mRNA = assay: RT-qPCR Assay to Quantify Exon 4 Skipping in ATXN3 pre-mRNA in Cells; format: cell-based; settings: percent exon 4 skipping in ATXN3 pre-mRNA, RT-qPCR of cell lysates; average IC50
Summary of the method: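 Cells plated at 10,000/well onto a 7-point, 3.16-fold DMSO dilution series (duplicates), incubated 24 h at 37 °C, then lysed. Exon 4 skipping measured by one-step RT-qPCR (48 °C RT, 40 cycles); IC50 interpolated from dose-response fit of percent skipping.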

SMILES | IC50 [1] | IC50 (ATXN3 pre-mRNA)
N[C@H]1CCCC[C@@H]1c1sc2c(NCc3ccncc3)cc(Cl)nc2c1Br [Compound 197, 2-((1S,2S)-2-aminocyclohexyl)-3-bromo-5-chloro-N-(pyridin-4-ylmethyl)thieno[3,2-b]pyridin-7-amine] | ≤ 30 nM | ≤ 30 nM
N[C@H]1CC=CC[C@@H]1c1sc2c(NCc3ccncc3)cc(Cl)nc2c1Br [Compound 198, 2-((1S,6S)-6-aminocyclohex-3-en-1-yl)-3-bromo-5-chloro-N-(pyridin-4-ylmethyl)thieno[3,2-b]pyridin-7-amine] | ≤ 30 nM | ≤ 30 nM
N[C@H]1CC=CC[C@@H]1c1sc2c(NCc3ncco3)cc(Cl)nc2c1Cl [Compound 199, 2-((1S,6S)-6-aminocyclohex-3-en-1-yl)-3,5-dichloro-N-(oxazol-2-ylmethyl)thieno[3,2-b]pyridin-7-amine] | ≤ 30 nM | ≤ 30 nM
N[C@H]1CCCC(F)(F)[C@@H]1c1sc2c(NCc3ccco3)nc(Cl)nc2c1Br [Compound 201, 6-((1R,6S)-6-amino-2,2-difluorocyclohexyl)-7-bromo-2-chloro-N-(furan-2-ylmethyl)thieno[3,2-d]pyrimidin-4-amine] | ≤ 30 nM | ≤ 30 nM
CC#CCNc1cc(Cl)nc2c(I)c([C@H]3CC=CC[C@@H]3N)sc12 [Compound 202, 2-((1S,6S)-6-aminocyclohex-3-en-1-yl)-N-(but-2-yn-1-yl)-5-chloro-3-iodothieno[3,2-b]pyridin-7-amine] | ≤ 30 nM | ≤ 30 nM
N[C@H]1CC=CC[C@@H]1c1sc2c(NCc3ccncc3)cc(Cl)nc2c1Cl [Compound 203, 2-((1S,6S)-6-aminocyclohex-3-en-1-yl)-3,5-dichloro-N-(pyridin-4-ylmethyl)thieno[3,2-b]pyridin-7-amine] | ≤ 30 nM | ≤ 30 nM
[2H]C1=C([2H])C([2H])([2H])[C@H](c2sc3c(NCc4cccs4)cc(Cl)nc3c2C)[C@@H](N)C1([2H])[2H] [Compound 205, 2-((1S,6S)-6-aminocyclohex-3-en-1-yl-2,2,3,4,5,5-d6)-5-chloro-3-methyl-N-(thiophen-2-ylmethyl)thieno[3,2-b]pyridin-7-amine] | ≤ 30 nM | ≤ 30 nM
N[C@H]1CC=CC[C@@H]1c1sc2c(NCc3ccco3)cc(Cl)nc2c1Br [Compound 206, 2-((1S,6S)-6-aminocyclohex-3-en-1-yl)-3-bromo-5-chloro-N-(furan-2-ylmethyl)thieno[3,2-b]pyridin-7-amine] | ≤ 30 nM | ≤ 30 nM
N[C@H]1CC=CC[C@@H]1c1sc2c(NCc3ccccc3)cc(Cl)nc2c1Cl [Compound 207, 2-((1S,6S)-6-aminocyclohex-3-en-1-yl)-N-benzyl-3,5-dichlorothieno[3,2-b]pyridin-7-amine] | ≤ 30 nM | ≤ 30 nM
C#Cc1c([C@H]2CCCC[C@@H]2N)sc2c(NCc3ccccc3)cc(Cl)nc12 [Compound 210, 2-((1S,2S)-2-aminocyclohexyl)-N-benzyl-5-chloro-3-ethynylthieno[3,2-b]pyridin-7-amine] | ≤ 30 nM | ≤ 30 nM
N[C@H]1CC=CC[C@@H]1c1sc2c(NCc3cccs3)cc(Cl)nc2c1C#CC[C@@H](O)CO [Compound 211, (R)-5-(2-((1S,6S)-6-aminocyclohex-3-en-1-yl)-5-chloro-7-((thiophen-2-ylmethyl)amino)thieno[3,2-b]pyridin-3-yl)pent-4-yne-1,2-diol] | ≤ 30 nM | ≤ 30 nM
[2H]C1=C([2H])C([2H])([2H])[C@H](c2sc3c(NCc4ccco4)cc(Cl)nc3c2C)[C@@H](N)C1([2H])[2H] [Compound 212, 2-((1S,6S)-6-aminocyclohex-3-en-1-yl-2,2,3,4,5,5-d6)-5-chloro-N-(furan-2-ylmethyl)-3-methylthieno[3,2-b]pyridin-7-amine] | ≤ 30 nM | ≤ 30 nM
N[C@H]1CC=CC[C@@H]1c1sc2c(NCc3ccncc3)nc(Cl)nc2c1Cl [Compound 214, 6-((1S,6S)-6-aminocyclohex-3-en-1-yl)-2,7-dichloro-N-(pyridin-4-ylmethyl)thieno[3,2-d]pyrimidin-4-amine] | ≤ 30 nM | ≤ 30 nM
N[C@H]1CC=CC[C@@H]1c1sc2c(NCc3cccs3)cc(Cl)nc2c1C#CC[C@H](O)CO [Compound 216, (S)-5-(2-((1S,6S)-6-aminocyclohex-3-en-1-yl)-5-chloro-7-((thiophen-2-ylmethyl)amino)thieno[3,2-b]pyridin-3-yl)pent-4-yne-1,2-diol] | ≤ 30 nM | ≤ 30 nM
N[C@H]1CC=CC[C@@H]1c1sc2c(NCc3ccsc3)cc(Cl)nc2c1Br [Compound 217, 2-((1S,6S)-6-aminocyclohex-3-en-1-yl)-3-bromo-5-chloro-N-(thiophen-3-ylmethyl)thieno[3,2-b]pyridin-7-amine] | ≤ 30 nM | ≤ 30 nM
N[C@H]1CCOC[C@@H]1c1sc2c(NCc3ccccc3)cc(Cl)nc2c1Cl [Compound 218, 2-((3R,4S)-4-aminotetrahydro-2H-pyran-3-yl)-N-benzyl-3,5-dichlorothieno[3,2-b]pyridin-7-amine] | ≤ 30 nM | ≤ 30 nM
CC#CCNc1nc(Cl)nc2c(I)c([C@H]3CC=CC[C@@H]3N)sc12 [Compound 219, 6-((1S,6S)-6-aminocyclohex-3-en-1-yl)-N-(but-2-yn-1-yl)-2-chloro-7-iodothieno[3,2-d]pyrimidin-4-amine] | ≤ 30 nM | ≤ 30 nM
Cc1c([C@@H]2CC=CC[C@H]2N)sc2c(NCc3cccs3)cc(Cl)nc12 [Compound 220, 2-((1R,6R)-6-aminocyclohex-3-en-1-yl)-5-chloro-3-methyl-N-(thiophen-2-ylmethyl)thieno[3,2-b]pyridin-7-amine] | ≤ 30 nM | ≤ 30 nM
N[C@H]1CCC(=O)C[C@@H]1c1sc2c(NCc3ccco3)cc(Cl)nc2c1Cl [Compound 221, (3S,4S)-4-amino-3-(3,5-dichloro-7-((furan-2-ylmethyl)amino)thieno[3,2-b]pyridin-2-yl)cyclohexan-1-one] | ≤ 30 nM | ≤ 30 nM
Cc1c([C@H]2CC=CC[C@@H]2N)sc2c(NCc3cccs3)cc(Cl)nc12 [Compound 222, 2-((1S,6S)-6-aminocyclohex-3-en-1-yl)-5-chloro-3-methyl-N-(thiophen-2-ylmethyl)thieno[3,2-b]pyridin-7-amine] | ≤ 30 nM | ≤ 30 nM
Cc1c([C@H]2CC=CC[C@@H]2N)sc2c(NCc3nccs3)nc(Cl)nc12 [Compound 223, 6-((1S,6S)-6-aminocyclohex-3-en-1-yl)-2-chloro-7-methyl-N-(thiazol-2-ylmethyl)thieno[3,2-d]pyrimidin-4-amine] | ≤ 30 nM | ≤ 30 nM
N[C@H]1CCCO[C@@H]1c1c(I)c2nc(Cl)nc(NCc3ccco3)c2n1C(F)F [Compound 225, 6-((2S,3S)-3-aminotetrahydro-2H-pyran-2-yl)-2-chloro-5-(difluoromethyl)-N-(furan-2-ylmethyl)-7-iodo-5H-pyrrolo[3,2-d]pyrimidin-4-amine] | ≤ 30 nM | ≤ 30 nM
N[C@H]1CC=CC[C@@H]1c1sc2c(NCc3ccccc3)nc(Cl)nc2c1I [Compound 229, 6-((1S,6S)-6-aminocyclohex-3-en-1-yl)-N-benzyl-2-chloro-7-iodothieno[3,2-d]pyrimidin-4-amine] | ≤ 30 nM | ≤ 30 nM
